{"source": "patent US20100022614A1", "about": "“PHARMACEUTICAL COMPOSITION FOR EXTERNAL APPLICATION AND ADHESIVE SKIN PATCH” (priority 2006, published 2010)", "format_in_all_cases": "physicochemical", "key": {"[1]": {"test": "Drug stability test (Test Example 4, FIG. 3): loxoprofen/lactic acid with additives, with or without NMP", "details": "for stability of LOX (in words): NMP added to LOX", "procedure": "By a similar procedure to Test Example 3 except that 1 g of an additive (aspartic acid, isostearic acid, disodium edetate, a carboxyvinyl polymer or polyvinylpyrrolidone) was added to a mixed solution of 0.1 g of loxoprofen and 5 g of lactic acid, the mass of loxoprofen sodium being present in each solvent system was measured.\nIn addition, by a similar procedure to Test Example 3 except that 1 g of N-methyl-2-pyrrolidone, and 1 g of an additive (aspartic acid, isostearic acid, disodium edetate, the carboxyvinyl polymer or polyvinylpyrrolidone) were further mixed, the mass of loxoprofen sodium being present in each solvent system was measured. The results are shown in FIG. 3 in terms of the ratio of each measurement with respect to the initial value."}, "[2]": {"test": "Drug stability test (Test Example 2): loxoprofen sodium in solvent systems left at 60° C., HPLC", "details": "for Loxoprofen sodium content (%) (vs. initial value): 60° C.", "procedure": "To each solvent was added 0.1 g of loxoprofen sodium, and the mixture was stirred at 25° C. overnight. The stirred mixture was filtrated to obtain a filtrate for use as a sample solution, and this sample solution was left to stand at 60° C. Thereafter, the mass of loxoprofen sodium being present in each solvent system was measured with high performance liquid chromatography (HPLC) 0 months later (initial value), 0.5 months later, and 1.0 month later. The results are shown in FIG. 1 and Table 2 in terms of the ratio of each measurement with respect to the initial value."}, "[3]": {"test": "Drug stability test (Test Example 3): loxoprofen sodium in solvent systems, autoclaving at 120° C.", "details": "for Loxoprofen sodium content (%) (vs. initial value): autoclaving 120° C.", "procedure": "To each solvent was added 0.1 g of loxoprofen sodium, and the mixture was stirred at 25° C. overnight. The stirred mixture was filtrated to obtain a filtrate for use as a sample solution. This sample solution was subjected to an autoclaving treatment at 120° C., and the mass of loxoprofen sodium being present in each solvent system was measured at time 0 (initial value), 2 hrs later, 4 hrs later, and 6 hrs later. The results are shown in FIG. 2 and Table 3 in terms of the ratio of each measurement with respect to the initial value. The measurement procedure was similar to Test Example 2."}, "[4]": {"test": "Drug stability test (Test Example 5, FIG. 4): loxoprofen sodium or felbinac in lactic acid with NMP", "details": "0.1 g drug in 5 g lactic acid with 1 g or 10 g NMP; autoclaving 120° C.", "procedure": "By a similar procedure to Test Example 3 except that either 1 g or 10 g of N-methyl-2-pyrrolidone was further mixed with a mixed solution of 0.1 g of loxoprofen sodium or felbinac and 5 g of lactic acid, the mass of the drug being present in each solvent system was measured."}, "[5]": {"test": "Drug solubility test (Test Example 1): amount of LOX dissolved in 1 g of additive, visual observation", "procedure": "The amount of dissolution of loxoprofen sodium (LOX) with respect to 1 g of each additive was determined by visual observation."}, "[6]": {"test": "Drug stability test (Test Example 6, FIG. 5): diclofenac sodium in lactic acid or glycerin with NMP", "details": "autoclaving 120° C.", "procedure": "By a similar procedure to Test Example 5 except that a mixed solution of 0.1 g of diclofenac sodium and 5 g of lactic acid or glycerin was used, the mass of the drug being present in each solvent system was measured."}, "[7]": {"test": "Drug stability test (Test Example 7, FIG. 6): tulobuterol in acetic acid with NMP", "details": "0.1 g drug in 5 g acetic acid with 1 g or 10 g NMP; autoclaving 120° C.", "procedure": "By a similar procedure to Test Example 5 except that a mixed solution of 0.1 g of tulobuterol and 5 g of acetic acid was used, the mass of the drug being present in each solvent system was measured."}}, "data": [{"compound": "CC(C(=O)O)c1ccc(CC2CCCC2=O)cc1", "note": "(centres unmarked) [LOX, loxoprofen sodium]", "values": [{"measurement": "stability of LOX (in words)", "setting": "[1]; lactic acid and adipic acid", "result": "favorable stability"}, {"measurement": "stability of LOX (in words)", "setting": "[1]; lactic acid and benzoic acid", "result": "favorable stability"}, {"measurement": "content of LOX versus control group without the additive (FIG. 3)", "setting": "[1]; lactic acid 5 g + 1 g additive having a carboxylic acid group (aspartic acid, isostearic acid, disodium edetate, carboxyvinyl polymer), irrespective of the presence of NMP, 120° C.", "result": "almost a similar level to the LOX content in the control group"}, {"measurement": "content of LOX versus control group (FIG. 3)", "setting": "[1]; lactic acid 5 g + 1 g polyvinylpyrrolidone, irrespective of the presence of NMP, 120° C.", "result": "increased to a level higher than the content of LOX in the control group"}, {"measurement": "Loxoprofen sodium content (%) (vs. initial value)", "setting": "[2]; solvent system Conc. glycerin 5 g, 0.5 months later", "result": 87.2, "unit": "%"}, {"measurement": "Loxoprofen sodium content (%) (vs. initial value)", "setting": "[2]; solvent system Conc. glycerin 5 g, 1.0 month later", "result": 82.4, "unit": "%"}, {"measurement": "Loxoprofen sodium content (%) (vs. initial value)", "setting": "[2]; solvent system Lactic acid 5 g + NMP0.1 g, 0.5 months later", "result": 88.2, "unit": "%"}, {"measurement": "Loxoprofen sodium content (%) (vs. initial value)", "setting": "[2]; solvent system Lactic acid 5 g + NMP0.1 g, 1.0 month later", "result": 82.7, "unit": "%"}, {"measurement": "Loxoprofen sodium content (%) (vs. initial value)", "setting": "[2]; solvent system Lactic acid 5 g + NMP1.0 g, 0.5 months later", "result": 91.3, "unit": "%"}, {"measurement": "Loxoprofen sodium content (%) (vs. initial value)", "setting": "[2]; solvent system Lactic acid 5 g + NMP1.0 g, 1.0 month later", "result": 85.8, "unit": "%"}, {"measurement": "Loxoprofen sodium content (%) (vs. initial value)", "setting": "[2]; solvent system Lactic acid 5 g + NMP10.0 g, 0.5 months later", "result": 99.8, "unit": "%"}, {"measurement": "Loxoprofen sodium content (%) (vs. initial value)", "setting": "[2]; solvent system Lactic acid 5 g + NMP10.0 g, 1.0 month later", "result": 99.4, "unit": "%"}, {"measurement": "Loxoprofen sodium content (%) (vs. initial value)", "setting": "[2]; solvent system Lactic acid 5 g, 0.5 months later", "result": 83.1, "unit": "%"}, {"measurement": "Loxoprofen sodium content (%) (vs. initial value)", "setting": "[2]; solvent system Lactic acid 5 g, 1.0 month later", "result": 79.9, "unit": "%"}, {"measurement": "Loxoprofen sodium content (%) (vs. initial value)", "setting": "[2]; solvent system Peppermint oil 5 g, 0.5 months later", "result": 83.2, "unit": "%"}, {"measurement": "Loxoprofen sodium content (%) (vs. initial value)", "setting": "[2]; solvent system Peppermint oil 5 g, 1.0 month later", "result": 77.7, "unit": "%"}, {"measurement": "time dependent lowering of the content of loxoprofen sodium (in words)", "setting": "[2]; solvent system of conc. glycerin, “polysorbate 80”, mentha oil or lactic acid", "result": "greatly exhibited"}, {"measurement": "Loxoprofen sodium content (%) (vs. initial value)", "setting": "[2]; solvent system “Polysorbate 80 g” 5 g, 0.5 months later", "result": 83.5, "unit": "%"}, {"measurement": "Loxoprofen sodium content (%) (vs. initial value)", "setting": "[2]; solvent system “Polysorbate 80 g” 5 g, 1.0 month later", "result": 69.1, "unit": "%"}, {"measurement": "Loxoprofen sodium content (%) (vs. initial value)", "setting": "[3]; solvent system Lactic acid 5 g + NMP0.1 g, 2 hrs", "result": 96.0, "unit": "%"}, {"measurement": "Loxoprofen sodium content (%) (vs. initial value)", "setting": "[3]; solvent system Lactic acid 5 g + NMP0.1 g, 4 hrs", "result": 90.7, "unit": "%"}, {"measurement": "Loxoprofen sodium content (%) (vs. initial value)", "setting": "[3]; solvent system Lactic acid 5 g + NMP0.1 g, 6 hrs", "result": 87.4, "unit": "%"}, {"measurement": "Loxoprofen sodium content (%) (vs. initial value)", "setting": "[3]; solvent system Lactic acid 5 g + NMP1.0 g, 2 hrs", "result": 98.0, "unit": "%"}, {"measurement": "Loxoprofen sodium content (%) (vs. initial value)", "setting": "[3]; solvent system Lactic acid 5 g + NMP1.0 g, 4 hrs", "result": 94.2, "unit": "%"}, {"measurement": "Loxoprofen sodium content (%) (vs. initial value)", "setting": "[3]; solvent system Lactic acid 5 g + NMP1.0 g, 6 hrs", "result": 91.9, "unit": "%"}, {"measurement": "Loxoprofen sodium content (%) (vs. initial value)", "setting": "[3]; solvent system Lactic acid 5 g + NMP10.0 g, 2 hrs", "result": 99.4, "unit": "%"}, {"measurement": "Loxoprofen sodium content (%) (vs. initial value)", "setting": "[3]; solvent system Lactic acid 5 g + NMP10.0 g, 4 hrs", "result": 99.8, "unit": "%"}, {"measurement": "Loxoprofen sodium content (%) (vs. initial value)", "setting": "[3]; solvent system Lactic acid 5 g + NMP10.0 g, 6 hrs", "result": 99.6, "unit": "%"}, {"measurement": "Loxoprofen sodium content (%) (vs. initial value)", "setting": "[3]; solvent system Lactic acid 5 g, 2 hrs", "result": 94.8, "unit": "%"}, {"measurement": "Loxoprofen sodium content (%) (vs. initial value)", "setting": "[3]; solvent system Lactic acid 5 g, 4 hrs", "result": 90.3, "unit": "%"}, {"measurement": "Loxoprofen sodium content (%) (vs. initial value)", "setting": "[3]; solvent system Lactic acid 5 g, 6 hrs", "result": 86.8, "unit": "%"}, {"measurement": "time dependent lowering of the content of loxoprofen sodium (in words)", "setting": "[3]; solvent system including lactic acid and N-methyl-2-pyrrolidone (Tables 2 to 3, FIGS. 1 to 2)", "result": "markedly suppressed"}, {"measurement": "stability of the drug (FIG. 4, in words)", "setting": "[4]", "result": "significantly improved"}, {"measurement": "amount of dissolution of loxoprofen sodium (in words)", "setting": "[5]; lactic acid and N-methyl-2-pyrrolidone used in combination", "result": "markedly great"}, {"measurement": "amount of dissolution of loxoprofen sodium (in words)", "setting": "[5]; lactic acid or N-methyl-2-pyrrolidone used alone, or other composition", "result": "significantly small"}, {"measurement": "Amount of dissolved LOX", "setting": "[5]; per 1 g of additive: 10% Citric anhydride + NMP, mixing ratio 1:10", "result": 0.1, "unit": "g"}, {"measurement": "Amount of dissolved LOX", "setting": "[5]; per 1 g of additive: 20% Citric anhydride + NMP, mixing ratio 1:5", "result": 0.1, "unit": "g"}, {"measurement": "Amount of dissolved LOX", "setting": "[5]; per 1 g of additive: 89% Phosphoric acid", "result": 0.25, "unit": "g"}, {"measurement": "Amount of dissolved LOX", "setting": "[5]; per 1 g of additive: Behenic acid + NMP, mixing ratio 1:1", "result": 0, "unit": "g"}, {"measurement": "Amount of dissolved LOX", "setting": "[5]; per 1 g of additive: Cetyl lactate + NMP, mixing ratio 1:4", "result": 0, "unit": "g"}, {"measurement": "Amount of dissolved LOX", "setting": "[5]; per 1 g of additive: Crotamiton", "result": 0, "unit": "g"}, {"measurement": "Amount of dissolved LOX", "setting": "[5]; per 1 g of additive: Isostearic acid + NMP, mixing ratio 1:1", "result": 0, "unit": "g"}, {"measurement": "Amount of dissolved LOX", "setting": "[5]; per 1 g of additive: L-menthol + NMP, mixing ratio 1:1", "result": 0, "unit": "g"}, {"measurement": "Amount of dissolved LOX", "setting": "[5]; per 1 g of additive: Lactic acid", "result": 0.25, "unit": "g"}, {"measurement": "Amount of dissolved LOX", "setting": "[5]; per 1 g of additive: Lactic acid + NMP, mixing ratio 1:2", "result": 1.5, "unit": "g"}, {"measurement": "Amount of dissolved LOX", "setting": "[5]; per 1 g of additive: Malic acid + NMP, mixing ratio 1:4", "result": 0, "unit": "g"}, {"measurement": "Amount of dissolved LOX", "setting": "[5]; per 1 g of additive: Myristic acid + NMP, mixing ratio 1:10", "result": 0, "unit": "g"}, {"measurement": "Amount of dissolved LOX", "setting": "[5]; per 1 g of additive: NMP", "result": 0, "unit": "g"}, {"measurement": "Amount of dissolved LOX", "setting": "[5]; per 1 g of additive: Oleyl alcohol", "result": 0, "unit": "g"}, {"measurement": "Amount of dissolved LOX", "setting": "[5]; per 1 g of additive: Peppermint oil", "result": 0, "unit": "g"}, {"measurement": "Amount of dissolved LOX", "setting": "[5]; per 1 g of additive: Phosphoric acid (89%) + NMP, mixing ratio 1:2", "result": 0, "unit": "g"}, {"measurement": "Amount of dissolved LOX", "setting": "[5]; per 1 g of additive: Polyethylene glycol 400", "result": 0.25, "unit": "g"}, {"measurement": "Amount of dissolved LOX", "setting": "[5]; per 1 g of additive: Stearic acid + NMP, mixing ratio 1:1", "result": 0, "unit": "g"}, {"measurement": "Amount of dissolved LOX", "setting": "[5]; per 1 g of additive: Tartaric acid + NMP, mixing ratio 1:2", "result": 0, "unit": "g"}, {"measurement": "Amount of dissolved LOX", "setting": "[5]; per 1 g of additive: Triacetin", "result": 0, "unit": "g"}]}, {"compound": "O=C(O)Cc1ccccc1Nc1c(Cl)cccc1Cl", "note": "[diclofenac sodium]", "values": [{"measurement": "reduction of stability caused by blending glycerin, effect of adding NMP (FIG. 5)", "setting": "[6]; 0.1 g drug in 5 g glycerin with 1 g or 10 g NMP", "result": "compensated"}, {"measurement": "reduction of stability caused by blending lactic acid, effect of adding NMP (FIG. 5)", "setting": "[6]; 0.1 g drug in 5 g lactic acid with 1 g or 10 g NMP", "result": "greatly compensated"}]}, {"compound": "O=C(O)Cc1ccc(-c2ccccc2)cc1", "note": "[felbinac]", "values": [{"measurement": "stability of the drug (FIG. 4, in words)", "setting": "[4]", "result": "significantly improved"}]}, {"compound": "CC(C)(C)NCC(O)c1ccccc1Cl", "note": "(centres unmarked) [tulobuterol]", "values": [{"measurement": "stability of the drug (FIG. 6, in words)", "setting": "[7]", "result": "greatly improves"}]}]}
